Blank lines part the entries; values can stand above or below the compound they belong to. Calls of active or inactive are those of the source. The calls are words filed in the database; no cut-off is given here.
Tests used:
[1] = target: T1, Melanin-concentrating hormone receptor 1 (Homo sapiens, UniProt Q99705); experiment: Antagonist activity at human MCHR1 expressed in Jurkat cells co-expressing apoaequorin assessed as inhibition of MCH-induced calcium mobilization by aequorin bioluminescence assay; type: functional, cell-based
T1 sequence (Q99705 whole entry): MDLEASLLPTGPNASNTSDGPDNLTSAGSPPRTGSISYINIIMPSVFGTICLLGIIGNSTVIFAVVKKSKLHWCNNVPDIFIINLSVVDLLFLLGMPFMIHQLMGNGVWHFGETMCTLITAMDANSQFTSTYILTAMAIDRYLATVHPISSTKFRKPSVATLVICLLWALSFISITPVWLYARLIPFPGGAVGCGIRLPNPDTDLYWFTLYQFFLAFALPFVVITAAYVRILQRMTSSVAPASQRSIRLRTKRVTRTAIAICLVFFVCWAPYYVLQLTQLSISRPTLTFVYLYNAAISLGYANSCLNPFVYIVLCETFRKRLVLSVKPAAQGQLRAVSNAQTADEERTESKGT

[2] = target: T1, Melanin-concentrating hormone receptor 1; experiment: Displacement of [125I]-MCH from MCHR1 after 2 hrs by beta scintillation counting
Rattus norvegicus [3] = experiment: Clearance in rat at 0.5 mg/kg, iv; type: ADME, organism-based; parameters: dose 0.5 mg/kg, route intravenous; settings: in vivo
[4] = Clearance in Beagle dog at 0.5 mg/kg, iv; type: ADME, organism-based, Canis lupus familiaris; parameters: dose 0.5 mg/kg, route intravenous; settings: in vivo
[5] = Clearance in rhesus monkey at 0.5 mg/kg, iv; type: ADME, organism-based, Macaca mulatta; parameters: dose 0.5 mg/kg, route intravenous; settings: in vivo
[6] = Volume of distribution at steady state in rat at 0.5 mg/kg, iv; type: ADME, organism-based; parameters: dose 0.5 mg/kg, route intravenous; settings: in vivo, read-out: Vdss
[7] = Volume of distribution at steady state in Beagle dog at 0.5 mg/kg, iv; type: ADME, organism-based, Canis lupus familiaris; parameters: dose 0.5 mg/kg, route intravenous; settings: in vivo, read-out: Vdss
[8] = Volume of distribution at steady state in rhesus monkey at 0.5 mg/kg, iv; type: ADME, organism-based, Macaca mulatta; parameters: dose 0.5 mg/kg, route intravenous; settings: in vivo, read-out: Vdss
[9] = Mean residence time in rat at 3 mg/kg, po; type: ADME, organism-based; parameters: dose 3 mg/kg, route oral; settings: in vivo
[10] = Mean residence time in Beagle dog at 3 mg/kg, po; type: ADME, organism-based, Canis lupus familiaris; parameters: dose 3 mg/kg, route oral; settings: in vivo
[11] = Mean residence time in rhesus monkey at 3 mg/kg, po; type: ADME, organism-based, Macaca mulatta; parameters: dose 3 mg/kg, route oral; settings: in vivo
Rattus norvegicus [12] = experiment: AUC in rat at 3 mg/kg, po; type: ADME, organism-based, Plasma; parameters: dose 3 mg/kg, route oral; settings: in vivo
[13] = AUC in Beagle dog at 3 mg/kg, po; type: ADME, organism-based, Canis lupus familiaris; parameters: dose 3 mg/kg, route oral; settings: plasma
[14] = AUC in rhesus monkey at 3 mg/kg, po; type: ADME, organism-based, Macaca mulatta; parameters: dose 3 mg/kg, route oral; settings: plasma
Rattus norvegicus [15] = experiment: Oral bioavailability in rat at 3 mg/kg; type: ADME, organism-based; settings: in vivo
[16] = Oral bioavailability in Beagle dog at 3 mg/kg; type: ADME, organism-based, Canis lupus familiaris; settings: in vivo
[17] = Oral bioavailability in rhesus monkey at 3 mg/kg; type: ADME, organism-based, Macaca mulatta; settings: in vivo
[18] = Clearance in rat hepatocytes assessed per 10^6 cells; type: ADME, cell-based, Liver, Hepatocyte
[19] = Clearance in Beagle dog hepatocytes assessed per 10^6 cells; type: ADME, cell-based, Canis lupus familiaris, Liver, Hepatocyte
[20] = Clearance in rhesus monkey hepatocytes assessed per 10^6 cells; type: ADME, cell-based, Macaca mulatta, Liver, Hepatocyte
[21] = Clearance in human hepatocytes assessed per 10^6 cells; type: ADME, cell-based, Liver, Hepatocyte
[22] = target: Melanin-concentrating hormone receptor 1 (Rattus norvegicus, UniProt P97639); experiment: Antagonist activity at rat MCHR1 expressed in HEK293 cells by aequorin bioluminescence assay; type: functional, cell-based
Sequence of Melanin-concentrating hormone receptor 1 (Rattus norvegicus, UniProt P97639) (P97639 whole entry): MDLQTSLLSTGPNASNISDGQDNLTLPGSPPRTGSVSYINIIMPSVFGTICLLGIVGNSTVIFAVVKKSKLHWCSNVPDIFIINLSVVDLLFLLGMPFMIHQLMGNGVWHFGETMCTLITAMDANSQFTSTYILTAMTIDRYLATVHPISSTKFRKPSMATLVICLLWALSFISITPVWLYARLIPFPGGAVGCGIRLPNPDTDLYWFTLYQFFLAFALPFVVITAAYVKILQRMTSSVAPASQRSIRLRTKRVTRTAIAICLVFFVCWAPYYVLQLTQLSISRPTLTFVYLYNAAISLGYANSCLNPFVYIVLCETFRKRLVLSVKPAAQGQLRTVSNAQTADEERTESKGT

Rattus norvegicus [23] = experiment: Antiobesity activity in ICV cannulated rat model assessed as reduction in MCH-induced food intake at 0.2 mg/kg, po administered 3 hrs before MCH challenge measured after 4 hrs post MCH challenge; type: functional; parameters: scale not given: the % may be the effect or the level left
Rattus norvegicus [24] = experiment: Antiobesity activity in ICV cannulated rat model assessed as reduction in MCH-induced food intake at 1 mg/kg, po administered 3 hrs before MCH challenge measured after 4 hrs post MCH challenge; type: functional, organism-based; parameters: dose 1 mg/kg
Rattus norvegicus [25] = experiment: Antiobesity activity in ICV cannulated rat model assessed as reduction in MCH-induced food intake at 5 mg/kg, po administered 3 hrs before MCH challenge measured after 4 hrs post MCH challenge; type: functional, organism-based; parameters: dose 5 mg/kg
Rattus norvegicus [26] = experiment: Toxicity in ICV cannulated rat model at 0.2 to 5 mg/kg, po administered 3 hrs before MCH challenge measured after 4 hrs post MCH challenge; type: organism-based; parameters: dose 0.2-5 mg/kg, route oral; settings: in vivo
[27] = target: Melanin-concentrating hormone receptor 2 (Homo sapiens) (UniProt Q969V1); experiment: Binding affinity to human MCHR2
Sequence of Melanin-concentrating hormone receptor 2 (Homo sapiens) (Q969V1 whole entry): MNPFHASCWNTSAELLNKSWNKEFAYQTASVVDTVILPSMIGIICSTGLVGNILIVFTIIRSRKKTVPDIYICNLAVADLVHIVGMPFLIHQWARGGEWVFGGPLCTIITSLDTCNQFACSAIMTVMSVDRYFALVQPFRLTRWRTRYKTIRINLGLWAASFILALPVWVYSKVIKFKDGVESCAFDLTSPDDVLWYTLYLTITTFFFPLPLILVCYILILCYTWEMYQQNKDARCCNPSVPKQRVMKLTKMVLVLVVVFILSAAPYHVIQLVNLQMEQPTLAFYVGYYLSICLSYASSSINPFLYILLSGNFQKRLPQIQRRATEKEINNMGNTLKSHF

[28] = target: Melanin-concentrating hormone receptor 1 (Macaca fascicularis, UniProt B6F061); experiment: Antagonist activity at cynomolgus monkey MCHR1; type: functional
Sequence of Melanin-concentrating hormone receptor 1 (Macaca fascicularis, UniProt B6F061) (B6F061 whole entry): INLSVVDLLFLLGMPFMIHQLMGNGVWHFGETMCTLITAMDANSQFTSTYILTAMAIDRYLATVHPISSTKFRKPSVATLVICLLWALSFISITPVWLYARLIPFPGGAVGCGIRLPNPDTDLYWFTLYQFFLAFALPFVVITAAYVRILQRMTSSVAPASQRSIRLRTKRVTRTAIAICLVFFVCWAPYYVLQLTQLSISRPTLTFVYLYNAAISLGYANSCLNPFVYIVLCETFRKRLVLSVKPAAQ

Cynomolgus monkey [29] = experiment: Antiobesity activity in cynomolgus monkey assessed as reduction of food intake at 10 mg/kg, po measured up to 8 days; type: functional, organism-based; parameters: dose 10 mg/kg; settings: Macaca fascicularis
Rattus norvegicus [30] = experiment: Toxicity in ICV cannulated rat model assessed as behavioural toxicity at 0.2 to 5 mg/kg, po administered 3 hrs before MCH challenge measured after 4 hrs post MCH challenge; type: organism-based; parameters: dose 0.2-5 mg/kg, route oral; settings: in vivo
Cynomolgus monkey [31] = experiment: Toxicity in cynomolgus monkey assessed as signs of sedation at 10 mg/kg, po; type: organism-based, Macaca fascicularis; parameters: dose 10 mg/kg, route oral; settings: in vivo
Cynomolgus monkey [32] = experiment: Toxicity in cynomolgus monkey at 10 mg/kg, po; type: organism-based, Macaca fascicularis; parameters: dose 10 mg/kg, route oral; settings: in vivo

IC50 [1]: > 20000 nM
Structure (SMILES): CC1c2c([nH]c3ccc(C(F)(F)F)cc23)CC2CCN(C(=O)c3ccccc3)CC21 (racemic)

IC50 [1]: 1000 nM
IC50 [2]: 750 nM
Structure (SMILES): C[C@@H]1c2c([nH]c3ccc(C(F)(F)F)cc23)C[C@@H]2CCN(CCN3CCOCC3)C[C@H]21

IC50 [1]: 200 nM
Structure (SMILES): Cc1ccc2[nH]c3c(c2c1)C(C)C1CN(C)CCC1C3 (racemic)

IC50 [1]: 180 nM
Structure (SMILES): CC1c2c([nH]c3ccc(C(F)(F)F)cc23)CC2CCN(CC3CCCCO3)CC21 (racemic)

IC50 [1]: 20 nM
Structure (SMILES): CC1c2c([nH]c3ccc(C(F)(F)F)cc23)CC2CCN(CCN3CCOCC3)CC21 (racemic)

IC50 [1]: 6 nM
IC50 [2]: 0.9 nM
Structure (SMILES): C[C@H]1c2c([nH]c3ccc(C(F)(F)F)cc23)C[C@H]2CCN(CCC3CCOCC3)C[C@@H]21

IC50 [1]: 700 nM
Structure (SMILES): CC1c2c([nH]c3cccc(Cl)c23)CC2CCN(C)CC21 (racemic)

IC50 [1]: 580 nM
Structure (SMILES): CC1c2c([nH]c3ccc(C(F)(F)F)cc23)CC2CCN(Cc3ccccc3)CC21 (racemic)

IC50 [1]: 180 nM
Structure (SMILES): CC1c2c([nH]c3ccc(C(F)(F)F)cc23)CC2CCN(CCc3ccccc3)CC21 (racemic)

IC50 [1]: 100 nM
IC50 [2]: 40 nM
Structure (SMILES): C[C@H]1c2c([nH]c3ccc(C(F)(F)F)cc23)C[C@H]2CCN(CCN3CCCCC3)C[C@@H]21

IC50 [1]: 50 nM
IC50 [2]: 4.4 nM
Structure (SMILES): C[C@H]1c2c([nH]c3ccc(C(F)(F)F)cc23)C[C@H]2CCN(CCCCC3CCOCC3)C[C@@H]21

IC50 [1]: 7 nM
IC50 [2]: 7 nM
Structure (SMILES): C[C@H]1c2c([nH]c3ccc(C(F)(F)F)cc23)C[C@H]2CCN(CCN3CCOCC3=O)C[C@@H]21

IC50 [1]: 100 nM
Structure (SMILES): CC1c2c([nH]c3ccc(Cl)cc23)CC2CCN(C)CC21 (racemic)

IC50 [1]: 400 nM
Structure (SMILES): COc1ccc2[nH]c3c(c2c1)C(C)C1CN(C)CCC1C3 (racemic)

IC50 [1]: > 20000 nM
Structure (SMILES): CC1c2c([nH]c3ccc(C(F)(F)F)cc23)CC2CCN(C(=O)C3CCOC3)CC21 (racemic)

Structure (SMILES): CC1c2c([nH]c3ccccc23)CC2CCN(C)CC21 (racemic)
IC50 [1]: 1000 nM

IC50 [1]: 6 nM
IC50 [2]: 0.5 nM
CL (Rattus norvegicus [3]): 3.3 mL/min/kg
clearance [4]: 100 mL/min/kg
clearance [5]: 65 mL/min/kg
Vd [6]: 16 L/kg
Vd [7]: 27 L/kg
Vd [8]: 18 L/kg
MRT [9]: 28 h
MRT [10]: 2.5 h
MRT [11]: 10 h
AUC (Rattus norvegicus [12]): 4078 ng·h/mL
AUC [13]: 268 ng·h/mL
AUC [14]: 907 ng·h/mL
F (Rattus norvegicus [15]): 81%
bioavailability [16]: 33%
bioavailability [17]: 70%
hepatocyte CLint [18]: < 0.3 µL/min/1e6 cells
hepatocyte CLint [19]: 8 µL/min/1e6 cells
hepatocyte CLint [20]: 4.9 µL/min/1e6 cells
hepatocyte CLint [21]: < 0.3 µL/min/1e6 cells
IC50 [22]: 4 nM
Activity [27]: inactive
IC50 [28]: 4 nM
Structure (SMILES): C[C@H]1c2c([nH]c3ccc(C(F)(F)F)cc23)C[C@H]2CCN(CCCC3CCOCC3)C[C@@H]21
Activity (Rattus norvegicus [23]): 50%
Activity (Rattus norvegicus [24]): Active
Activity (Rattus norvegicus [25]): Active
Activity (Rattus norvegicus [26]): Non-toxic
Activity (Cynomolgus monkey [29]): Active
Activity (Rattus norvegicus [30]): Non-toxic
Activity (Cynomolgus monkey [31]): Non-toxic
Activity (Cynomolgus monkey [32]): Non-toxic

IC50 [1]: 20 nM
IC50 [2]: 3 nM
Structure (SMILES): C[C@H]1c2c([nH]c3ccc(C(F)(F)F)cc23)C[C@H]2CCN(CCN3CCOCC3)C[C@@H]21

IC50 [1]: 50 nM
Structure (SMILES): CC1c2c([nH]c3cc(Cl)c(Cl)cc23)CC2CCN(C)CC21 (racemic)

IC50 [1]: 100 nM
Structure (SMILES): CC1c2c([nH]c3ccc(C(F)(F)F)cc23)CC2CCN(C)CC21 (racemic)

IC50 [1]: 1000 nM
Structure (SMILES): CC1c2c([nH]c3c(Cl)cccc23)CC2CCN(C)CC21 (racemic)

IC50 [1]: 200 nM
Structure (SMILES): CC1c2c([nH]c3cc(C(F)(F)F)ccc23)CC2CCN(C)CC21 (racemic)

Reference: ChEMBL document CHEMBL1921706, “Discovery of a novel series of melanin-concentrating hormone receptor 1 antagonists for the treatment of obesity” (Bioorg Med Chem Lett, 2011)
